Results: patent US9273043B2, “TRPV1 antagonists including dihydroxy substituent and uses thereof” (Purdue Pharma L.P., priority 2011, dated 2016)
In brackets after ≈: the same amount, converted by molar mass. Like-named read-outs stand apart in the source and are kept apart here.

Assays:
human TRPV1 = human TRPV1 (Homo sapiens (Human), UniProt Q8NER1); assay: Capsaicin-based assay, Protocol 2, TRPV1/CHO cells (hCAP-CHO), Fluo-4 FLIPR; assay type: cell-based; settings: 100 nM capsaicin, mean ± SEM
Text: The TRPV1/CHO cell line was generated as described below. […] The resulting PCR products were purified from agarose gels using Gel Band Purification Kit (GE Healthcare Bioscience) and were subcloned into pCR-Blunt vector (Invitrogen). The cloned cDNA was fully sequenced using a fluorescent dye-terminator reagent (BigDye Terminator ver3.1 Cycle Sequencing Kit, Applied Biosystems) and ABI Prism 3100 genetic analyzer (Applied Biosystems). The pCR-Blunt vector containing the hTRPV1 cDNA was subjected to restriction digestion with EcoR1. The restriction fragment was subcloned into expression vector pcDNA3.1(-) (Invitrogen) and named pcDNA3.1(-)-hVR1 plasmid. The sequence of the cDNA encoding TRPV1 is available at GenBank accession number AJ277028. […] The cells were transfected with the pcDNA3.1(-)-hVR1 plasmid using FuGENE6 (Roche) according to the manufacturer's protocol. 24 hr after transfection, neomycin-resistant cells were selected using 1 mg/mL G418 (Nacalai Tesque). […] The cells expressing hTRPV1 were cultured in the growth medium supplemented with 1 mg/mL G418. […] Capsaicin-based Assay: […] Subsequently, the cells were loaded by incubation in 0.1 mL of wash buffer containing Fluo-4 at 3 μM final concentration. After 1 hour, the cells were washed twice with 0.2 mL wash buffer and resuspended in 0.1 mL wash buffer. The plates were then transferred to a Fluorescence Imaging Plate Reader (Molecular Devices). Fluorescence intensity was monitored for 15 seconds to establish a baseline. […] The final concentration of the compound was adjusted to range from 100 μM to 1.5625 μM. […] Data were collected over the entire time course and analyzed using Excel and the curve-fitting formula GraphPad Prism.

[1] = Aqueous solubility at pH 1.2 and pH 6.8; assay type: physicochemical; settings: aqueous solution
[2] = In vivo assay of body temperature increase (rectal body temperature); parameters: species or system rat; settings: rats, oral, 10 mL/kg of 1 mg/mL in 0.5% methylcellulose; greatest ΔTb versus vehicle control at 0.5, 1 or 2 hrs
Text: Hyperthermia or undesirable elevation in animal body temperature is known to be an undesirable side-effect accompanying the administration of certain TRPV1 antagonists (Gavva, “Body-temperature maintenance as the predominant function of the vanilloid receptor TRPV1,” Trends Pharmacol. Sci. 29(11):550-557 (2008)).
Test Animals: Selection of rats (Crl/SD rats, 7 weeks, male) was based on rectal body temperature measured during the morning of the day of dosing as described below. In addition, to minimize spontaneous, stress-induced increases in body temperature, rats were acclimated in advance to both the rectal measurement procedure and to being handled and dosed. All lodging and testing took place in animal care laboratories with constant room temperature and humidity. The rats were free to move and ingest food and water throughout. Each rat was coded with a colored line on the tail, housed in a separate cage, and permitted the normal range of movement. Immediately before each body temperature measurement, a rat was transferred to a measurement cage. To reduce stress which could influence its body temperature, each rat was covered with towels during the measurement. A thermistor probe was then carefully inserted into the rectum of each rat and left in place until the temperature reading on the digital display had stabilized; this value was recorded.
Assay: On the day before dosing, rectal body temperature was measured at 9:00, 10:00, 11:00, 12:30, 13:30, 14:30, and 15:30 o'clock to familiarize the rats with the measurement procedure prior to administration of the test or control treatments. The rats were also dosed by oral gavage without vehicle at 12:30 o'clock to acclimate and familiarize them with the handling and dosing procedure.
On the day of dosing, only rats with rectal body temperatures within the range of from 37.0° C. to 37.7° C. were selected for study. Rectal body temperatures were measured at 9:00, 10:00, and 11:00 o'clock. Rats were excluded from the study if either their rectal body temperature was over 37.9° C. at 10:00 o'clock or was outside the range of from 37.0° C. to 37.7° C. at 11:00 o'clock. The selected rats were divided into several groups based on their rectal body temperatures at 11:00 o'clock. Rectal body temperatures of the selected rats were measured again at 12:30 o'clock and any rat with a rectal body temperature of 38.0° C. or greater was also excluded from the study.
Following assignment to either a test or control group, a test compound or a control was administered to the rats. Each test compound was dissolved in a vehicle of 0.5% aqueous methylcellulose solution and the final concentration of the test compound was adjusted to 1 mg/mL. Each test compound was orally administered once at a dose of 10 mL/kg. The same volume of the control (vehicle only) was administered once to the control group. Rectal body temperatures were measured at the following time points: 0.5, 1, and 2 hrs after administration.
The body temperature increase (ΔTb) for each test compound was calculated by subtracting, at each time point, the average temperature of the control group from the average temperature of the group administered that test compound. The greatest ΔTb obtained for each test compound at any of the time points is shown in Table 11 below, along with the ΔTb of the control.

[3] = pH 1.2, simulated gastric fluid, read-out: aqueous solubility at pH 1.2
[4] = pH 6.8, aqueous buffer, read-out: aqueous solubility at pH 6.8

Chain of human TRPV1 (Q8NER1 whole entry, looked up, the tested form may be a part): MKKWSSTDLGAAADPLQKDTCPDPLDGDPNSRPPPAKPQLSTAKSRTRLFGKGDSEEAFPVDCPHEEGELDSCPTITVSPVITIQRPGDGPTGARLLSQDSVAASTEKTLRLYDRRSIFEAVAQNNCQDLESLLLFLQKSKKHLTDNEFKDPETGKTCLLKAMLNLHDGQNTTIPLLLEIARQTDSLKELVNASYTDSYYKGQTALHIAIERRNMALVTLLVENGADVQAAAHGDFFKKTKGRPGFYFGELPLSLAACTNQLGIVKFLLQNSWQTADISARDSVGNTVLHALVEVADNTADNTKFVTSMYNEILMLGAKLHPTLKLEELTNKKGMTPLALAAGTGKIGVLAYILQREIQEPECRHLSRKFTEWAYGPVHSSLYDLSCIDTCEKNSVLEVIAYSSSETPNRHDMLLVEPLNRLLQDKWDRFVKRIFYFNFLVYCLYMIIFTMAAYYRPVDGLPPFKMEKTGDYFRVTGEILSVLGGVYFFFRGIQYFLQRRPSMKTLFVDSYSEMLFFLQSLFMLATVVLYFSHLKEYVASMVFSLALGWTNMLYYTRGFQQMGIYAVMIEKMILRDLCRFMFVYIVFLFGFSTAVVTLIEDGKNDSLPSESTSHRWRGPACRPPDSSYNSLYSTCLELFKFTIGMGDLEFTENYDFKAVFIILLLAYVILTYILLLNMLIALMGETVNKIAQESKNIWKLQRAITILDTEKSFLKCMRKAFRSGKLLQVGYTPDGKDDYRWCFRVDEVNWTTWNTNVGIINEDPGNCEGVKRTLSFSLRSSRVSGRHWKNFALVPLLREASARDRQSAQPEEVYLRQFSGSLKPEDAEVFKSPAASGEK

Row | IC50 (human TRPV1) [nM] | solubility [1, 3] [µM] | solubility [1, 4] [µM] | ΔTb, body temperature increase [2] [°C] | SMILES
1 | 107 ± 20 | – | – | – | C[C@H](O)[C@@H](O)c1cnc(N2CCN(C(=O)Nc3nc4cc(F)ccc4s3)[C@@H](C)C2)c(F)c1 [B155(h), (S)-4-{5-[(1S,2S)-1,2-dihydroxypropyl]-3-fluoropyridin-2-yl}-N-(5-fluorobenzo[d]thiazol-2-yl)-2-methylpiperazine-1-carboxamide]
2 | 168 ± 42 | > 50 | 4 (≈ 1.8 µg/mL) | 0.1 | C[C@H]1CN(c2ncc([C@@H](O)CO)cc2F)CCN1C(=O)Nc1nc2cc(F)ccc2s1 [A155(d), (S)-4-{5-[(R)-1,2-dihydroxyethyl]-3-fluoropyridin-2-yl}-N-(5-fluorobenzo[d]thiazol-2-yl)-2-methylpiperazine-1-carboxamide]
3 | 16.5 ± 4.2 | > 50 | 5 (≈ 2.25 µg/mL) | 0.1 | C[C@@H]1CN(c2ncc([C@@H](O)CO)cc2F)CCN1C(=O)Nc1nc2cc(F)ccc2s1 [A155(e), (R)-4-{5-[(R)-1,2-dihydroxyethyl]-3-fluoropyridin-2-yl}-N-(5-fluorobenzo[d]thiazol-2-yl)-2-methylpiperazine-1-carboxamide]
